Measurements published in PubChem BioAssay (NCI).
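Here, GI50 denotes the concentration required for 50% inhibition of growth. The concentration for full growth arrest is given as TGI.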

Experiments:
Assay in all cases: NCI tumour cell line growth inhibition, 384-well format
[1] = system: M14 melanoma
[2] = system: NCI/ADR-RES ovarian
[3] = system: OVCAR-8 ovarian
[4] = system: K-562 leukemia
[5] = system: SK-MEL-5 melanoma
[6] = system: SF-295 CNS
[7] = system: UACC-257 melanoma
[8] = system: HCC-2998 colon
[9] = system: SK-OV-3 ovarian
[10] = system: TK-10 renal
[11] = system: NCI-H23 lung
[12] = system: EKVX NSCLC
[13] = system: RPMI-8226 leukemia
[14] = system: UO-31 renal
[15] = system: MOLT-4 leukemia
[16] = system: SNB-75 CNS
[17] = system: U251 glioblastoma
[18] = system: ACHN renal
[19] = system: NCI-H226 lung
[20] = system: SNB-19 CNS
[21] = system: MCF7 breast
[22] = system: SN12C renal
[23] = system: HT29 colon
[24] = system: LOX IMVI melanoma
[25] = system: MDA-MB-468 breast
[26] = system: HCT-15 colon
[27] = system: NCI-H322M lung
[28] = system: SK-MEL-2 melanoma
[29] = system: SR leukemia
[30] = system: A498 renal
[31] = system: SK-MEL-28 melanoma
[32] = system: IGROV1 ovarian
[33] = system: MDA-MB-231 breast
[34] = system: T-47D breast
[35] = system: PC-3 prostate
[36] = system: NCI-H522 lung
[37] = system: MDA-MB-435 melanoma
[38] = system: HOP-92 NSCLC
[39] = system: DU-145 prostate
[40] = system: SW-620 colon
[41] = system: HCT-116 colon
[42] = system: HL-60(TB) leukemia
[43] = system: BT-549 breast
[44] = system: COLO 205 colon
[45] = system: OVCAR-4 ovarian
[46] = system: OVCAR-3 ovarian
[47] = system: OVCAR-5 ovarian

Work on `O=C(Nc1cccc(NS(=O)(=O)c2ccc(F)cc2)c1)c1ccc(-c2ccccc2)cc1` yielded a GI50 [1] of 6.38 µM, a TGI [1] of 19.5 µM and a GI50 [2] of 2.55 µM. The TGI [2] was 9.38 µM, the GI50 [3] was 3.57 µM and the TGI [3] was 13.3 µM. The GI50 [4] was 2.6 µM, the TGI [4] was 11.2 µM and the GI50 [5] was 2.56 µM. It also gave a TGI [5] of 7.94 µM, a GI50 [6] of 2.79 µM and a TGI [6] of 10.1 µM. The GI50 [7] was 4.02 µM, the TGI [7] was 16.7 µM and the GI50 [8] was 6.02 µM. The TGI [8] was 21.2 µM, the GI50 [9] was 5.43 µM and the TGI [9] was 28.3 µM. The GI50 [10] was 4.17 µM, the TGI [10] was 19.2 µM and the GI50 [11] was 2.53 µM. For the same compound, the TGI [11] was 8.44 µM, the GI50 [12] was 3.09 µM and the TGI [12] was 12.3 µM. The GI50 [13] was 1.47 µM, the TGI [13] was 3.75 µM and the GI50 [14] was 3.59 µM. It also gave a TGI [14] of 13.5 µM, a GI50 [15] of 1.81 µM and a TGI [15] of 3.64 µM. The GI50 [16] was 5.65 µM, the TGI [16] was 25.1 µM and the GI50 [17] was 2.35 µM. For the same compound, the TGI [17] was 5.72 µM, the GI50 [18] was 4.13 µM and the TGI [18] was 21.6 µM. For the same compound, the GI50 [19] was 5.91 µM, the TGI [19] was 20.7 µM and the GI50 [20] was 4.04 µM. It also gave a TGI [20] of 21.7 µM, a GI50 [21] of 4.23 µM and a TGI [21] of 14.4 µM. It also gave a GI50 [22] of 3.45 µM, a TGI [22] of 11.8 µM and a GI50 [23] of 4.49 µM. It also gave a TGI [23] of 21.5 µM, a GI50 [24] of 3.31 µM and a TGI [24] of 11.4 µM. It also gave a GI50 [25] of 3.1 µM, a TGI [25] of 8.43 µM and a GI50 [26] of 4.05 µM. It also gave a TGI [26] of 19.5 µM, a GI50 [27] of 3.9 µM and a TGI [27] of 19.7 µM. For the same compound, the GI50 [28] was 12.9 µM, the TGI [28] was 26.3 µM and the GI50 [29] was 1.76 µM. The TGI [29] was 3.31 µM, the GI50 [30] was 4.4 µM and the TGI [30] was 16.8 µM. For the same compound, the GI50 [31] was 17.1 µM, the TGI [31] was 38.5 µM and the GI50 [32] was 10.4 µM. The TGI [32] was 37.1 µM, the GI50 [33] was 3.72 µM and the TGI [33] was 18.3 µM. The GI50 [34] was 2.03 µM, the TGI [34] was 9.91 µM and the GI50 [35] was 3.36 µM. It also gave a TGI [35] of 11.5 µM, a GI50 [36] of 3.6 µM and a TGI [36] of 15.2 µM. It also gave a GI50 [37] of 4.59 µM, a TGI [37] of 17.1 µM and a GI50 [38] of 2.94 µM. It also gave a TGI [38] of 8.32 µM, a GI50 [39] of 4.44 µM and a TGI [39] of 26.5 µM. The GI50 [40] was 4.54 µM, the TGI [40] was 16.2 µM and the GI50 [41] was 3.54 µM. The TGI [41] was 12.6 µM, the GI50 [42] was 1.73 µM and the TGI [42] was 3.46 µM. For the same compound, the GI50 [43] was 2.89 µM, the TGI [43] was 8.64 µM and the GI50 [44] was 4.33 µM. It also gave a TGI [44] of 17.2 µM, a GI50 [45] of 3.85 µM and a TGI [45] of 18.2 µM. The GI50 [46] was 7.05 µM, the TGI [46] was 20 µM and the GI50 [47] was 7.57 µM. For the same compound, the TGI [47] was 26.7 µM.
